Active and inactive are the calls of the source.
Columns and labels:
[1] = target: DNA dC->dU-editing enzyme APOBEC-3A (Homo sapiens, UniProt P31941); test: Dose Response confirmation of small molecule APOBEC3A DNA Deaminase Inhibitors via a fluorescence-based single-stranded DNA deaminase assay. [Related pubchem assays (depositor defined):AID493011, AID493024]; assay type: functional
[2] = target: DNA dC->dU-editing enzyme APOBEC-3G (Homo sapiens, UniProt Q9HC16); assay type: functional;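 also: Dose-response counterscreen measuring inhibition of APOBEC3G DNA deaminase activity, run while confirming APOBEC3A inhibitors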
[3] = target: T1, Carboxy-terminal domain RNA polymerase II polypeptide A small phosphatase 1 (Homo sapiens, UniProt Q9GZU7); test: inhibitors of CTDSP1, concentration-response testing, biochemical assay, absorbance-based, actives from ultra-high-throughput screening (AID 540297); assay type: functional
T1 sequence (Q9GZU7 whole entry): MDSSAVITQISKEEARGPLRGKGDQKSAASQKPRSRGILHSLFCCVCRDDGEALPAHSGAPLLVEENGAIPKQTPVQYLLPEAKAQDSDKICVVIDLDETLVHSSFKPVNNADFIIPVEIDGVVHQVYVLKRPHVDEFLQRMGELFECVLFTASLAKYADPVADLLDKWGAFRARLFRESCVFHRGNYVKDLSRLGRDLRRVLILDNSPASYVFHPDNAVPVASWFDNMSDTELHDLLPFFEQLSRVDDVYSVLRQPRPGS

Cytochrome P450 2C19 = Cytochrome P450 2C19 (Homo sapiens, UniProt P33261); test: Cytochrome panel assay with activity outcomes. Panel member name: p450-cyp2c19 Compounds with AC50 equal or less than 10 uM are considered active; assay type: functional
Cytochrome P450 2C9 = Cytochrome P450 2C9 (Homo sapiens, UniProt P11712)
[4] = Luminescence Cell-Based Dose Confirmation HTS to Identify Activators of 5'UTR Stem-Loop Driven Alpha-Synuclein mRNA Translation in H4 Neuroglioblastoma Cells. [Related pubchem assays: 1829 (Project Summary), 1814 (Primary HTS)]; assay type: functional
[5] = Luminescence Cell-Based Dose Response HTS to Identify Activators of Luciferase Translation or Activity in H4 […] Cells. [Related pubchem assays: 1829 (Project Summary), 1814 (Primary HTS)]; assay type: functional
BJ [6] = test: cytotoxicity toward BJ-TERT fibroblasts, dose response, cell-based, RAS-independent, luminescence (AID 1933); assay type: functional; details: Homo sapiens
H4 = test: Luminescence Cell-Based Dose Response HTS to Identify Activators of 5'UTR Stem-Loop Driven Prion Protein mRNA Translation in H4 Neuroglioblastoma Cells. [Related pubchem assays: 1829 (Project Summary), 1814 (Primary HTS)]; assay type: functional; details: Homo sapiens
BJ [7] = test: cells; assay type: functional, cell-based; details: Homo sapiens
BJ [8] = test: cytotoxicity toward BJ-TERT-LT-ST fibroblasts, dose response, cell-based, RAS-independent, luminescence (AID 1935); assay type: functional; details: Homo sapiens;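 also: BJ fibroblasts immortalized with TERT plus LT and ST oncogenes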
[9] = cytotoxicity toward DRD oncogenic fibroblasts, dose response, cell-based, non-viral oncogenic, luminescence (AID 1934); assay type: functional; details: Homo sapiens
[10] = target: T2, Microphthalmia-associated transcription factor (Homo sapiens, UniProt O75030); test: TRPM1 promoter luciferase signal decrease, dose response, MITF inhibitor project, cell-based, SK-MEL-5, cherry-picked, set 3 (AID 493073); assay type: functional
T2 sequence (O75030 whole entry): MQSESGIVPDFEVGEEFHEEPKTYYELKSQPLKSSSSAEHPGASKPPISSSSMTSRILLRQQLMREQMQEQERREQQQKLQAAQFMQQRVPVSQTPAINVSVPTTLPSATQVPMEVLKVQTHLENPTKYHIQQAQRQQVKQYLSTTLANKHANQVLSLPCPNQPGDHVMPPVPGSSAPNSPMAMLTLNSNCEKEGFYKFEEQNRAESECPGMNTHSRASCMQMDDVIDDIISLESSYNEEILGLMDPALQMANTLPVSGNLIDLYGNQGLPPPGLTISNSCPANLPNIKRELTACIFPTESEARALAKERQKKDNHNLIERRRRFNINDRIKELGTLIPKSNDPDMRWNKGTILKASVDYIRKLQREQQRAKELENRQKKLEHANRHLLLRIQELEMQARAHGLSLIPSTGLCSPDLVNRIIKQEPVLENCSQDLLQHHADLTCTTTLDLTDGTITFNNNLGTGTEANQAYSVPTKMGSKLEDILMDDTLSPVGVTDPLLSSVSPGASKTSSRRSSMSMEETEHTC

Protein skinhead-1 = target: T3, Protein skinhead-1 (Caenorhabditis elegans, UniProt P34707); assay type: functional
T3 sequence (P34707 whole entry): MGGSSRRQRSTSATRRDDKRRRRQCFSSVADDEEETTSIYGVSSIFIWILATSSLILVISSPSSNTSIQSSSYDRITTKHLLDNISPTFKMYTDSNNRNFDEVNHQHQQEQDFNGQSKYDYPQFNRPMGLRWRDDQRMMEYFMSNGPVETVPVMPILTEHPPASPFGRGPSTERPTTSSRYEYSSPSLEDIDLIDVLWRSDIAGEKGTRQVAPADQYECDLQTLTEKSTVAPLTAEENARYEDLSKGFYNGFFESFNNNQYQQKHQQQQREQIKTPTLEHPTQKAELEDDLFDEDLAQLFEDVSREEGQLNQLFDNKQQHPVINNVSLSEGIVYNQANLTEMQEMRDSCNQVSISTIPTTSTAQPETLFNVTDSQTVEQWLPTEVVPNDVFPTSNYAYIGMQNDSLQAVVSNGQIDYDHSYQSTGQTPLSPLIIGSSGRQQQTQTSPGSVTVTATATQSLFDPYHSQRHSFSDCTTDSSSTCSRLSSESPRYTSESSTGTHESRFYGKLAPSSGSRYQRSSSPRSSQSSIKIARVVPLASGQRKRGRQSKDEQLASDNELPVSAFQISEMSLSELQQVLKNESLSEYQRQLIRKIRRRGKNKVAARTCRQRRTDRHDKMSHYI

[11] = target: T4, Heat shock factor protein 1 (Mus musculus, UniProt P38532); test: inhibition of MG132-induced HSE-luciferase signal, confirmation, cell-based, NIH3T3, luminescence, dose retest (AID 2382); assay type: functional;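 also: NIH3T3 fibroblasts with HSF1-driven luciferase reporter stressed by proteasome inhibitor MG132; luminescence from HSF1-driven luciferase expression after 8 hours of MG132 stress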
T4 sequence (P38532 whole entry): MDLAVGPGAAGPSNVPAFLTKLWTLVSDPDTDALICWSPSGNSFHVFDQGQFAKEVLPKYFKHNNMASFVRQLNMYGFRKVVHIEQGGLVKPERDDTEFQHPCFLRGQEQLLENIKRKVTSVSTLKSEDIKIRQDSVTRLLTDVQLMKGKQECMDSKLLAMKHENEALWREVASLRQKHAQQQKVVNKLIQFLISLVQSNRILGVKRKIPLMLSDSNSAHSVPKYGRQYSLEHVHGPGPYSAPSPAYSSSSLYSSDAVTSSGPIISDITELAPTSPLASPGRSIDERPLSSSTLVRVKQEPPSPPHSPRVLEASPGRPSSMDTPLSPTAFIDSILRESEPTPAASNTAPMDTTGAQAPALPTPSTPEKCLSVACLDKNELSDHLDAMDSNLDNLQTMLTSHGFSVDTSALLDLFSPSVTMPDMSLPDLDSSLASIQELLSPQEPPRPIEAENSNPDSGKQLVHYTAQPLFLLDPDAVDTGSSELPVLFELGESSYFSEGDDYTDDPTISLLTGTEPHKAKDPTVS

[12] = target: Luciferin 4-monooxygenase (Photinus pyralis, UniProt P08659); test: firefly luciferase enzyme inhibitors, dose response, biochemical, luminescence (AID 1891)
[13] = Luminescence Cell-Based Dose Confirmation HTS to Identify Inhibitors of Platelet Dense Granule Release. [Related pubchem assays: 1663 (Primary HTS), 1678 (Summary of Project)]; assay type: functional
[14] = target: T4, Heat shock factor protein 1; test: HSF1 potentiators in luciferase reporter cells, confirmation, cell-based, NIH3T3, luminescence, dose retest (AID 435004); assay type: functional;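 also: stress induced by proteasome inhibitor MG132 added 30 min after compound; luciferase reporter driven by HSF1 response element in NIH3T3 cells; actives raise luminescence as potentiators of the MG132 stress response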
Genome polyprotein = Genome polyprotein (dengue virus type 2, UniProt P29990); test: Dengue-2 NS5 methyltransferase inhibitors, primary screen, biochemical, confirmation dose response (AID 588689); assay type: functional
Cytochrome P450 1A2 = target: T5, Cytochrome P450 1A2 (Homo sapiens, UniProt P05177);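 also: PubChem cytochrome P450 panel assay, CYP1A2 panel member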
T5 sequence (P05177 whole entry): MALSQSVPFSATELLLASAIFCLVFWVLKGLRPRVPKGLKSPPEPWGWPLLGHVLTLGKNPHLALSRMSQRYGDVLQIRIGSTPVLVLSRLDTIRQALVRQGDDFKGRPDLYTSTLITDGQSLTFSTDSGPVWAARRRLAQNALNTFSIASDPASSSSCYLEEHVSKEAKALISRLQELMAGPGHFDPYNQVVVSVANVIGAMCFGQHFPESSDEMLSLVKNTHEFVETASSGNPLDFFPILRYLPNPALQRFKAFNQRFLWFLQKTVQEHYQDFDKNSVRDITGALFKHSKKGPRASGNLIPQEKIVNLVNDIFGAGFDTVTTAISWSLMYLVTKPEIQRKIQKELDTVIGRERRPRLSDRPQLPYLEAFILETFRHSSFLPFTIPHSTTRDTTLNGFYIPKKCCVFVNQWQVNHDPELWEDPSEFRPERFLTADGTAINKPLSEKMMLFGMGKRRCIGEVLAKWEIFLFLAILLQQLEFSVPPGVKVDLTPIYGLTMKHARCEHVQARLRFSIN

Tumor necrosis factor = Tumor necrosis factor (Homo sapiens, UniProt P01375); test: TNFa-triggered NF-kB activation inhibitors, SAR follow-up, cell-based, revised (AID 2337); assay type: functional
[15] = target: T6, Nucleotide-binding oligomerization domain-containing protein 1 (Homo sapiens, UniProt Q9Y239); test: NOD1 signaling inhibitors, SAR follow-up, revised (AID 2333); assay type: functional
T6 sequence (Q9Y239 whole entry): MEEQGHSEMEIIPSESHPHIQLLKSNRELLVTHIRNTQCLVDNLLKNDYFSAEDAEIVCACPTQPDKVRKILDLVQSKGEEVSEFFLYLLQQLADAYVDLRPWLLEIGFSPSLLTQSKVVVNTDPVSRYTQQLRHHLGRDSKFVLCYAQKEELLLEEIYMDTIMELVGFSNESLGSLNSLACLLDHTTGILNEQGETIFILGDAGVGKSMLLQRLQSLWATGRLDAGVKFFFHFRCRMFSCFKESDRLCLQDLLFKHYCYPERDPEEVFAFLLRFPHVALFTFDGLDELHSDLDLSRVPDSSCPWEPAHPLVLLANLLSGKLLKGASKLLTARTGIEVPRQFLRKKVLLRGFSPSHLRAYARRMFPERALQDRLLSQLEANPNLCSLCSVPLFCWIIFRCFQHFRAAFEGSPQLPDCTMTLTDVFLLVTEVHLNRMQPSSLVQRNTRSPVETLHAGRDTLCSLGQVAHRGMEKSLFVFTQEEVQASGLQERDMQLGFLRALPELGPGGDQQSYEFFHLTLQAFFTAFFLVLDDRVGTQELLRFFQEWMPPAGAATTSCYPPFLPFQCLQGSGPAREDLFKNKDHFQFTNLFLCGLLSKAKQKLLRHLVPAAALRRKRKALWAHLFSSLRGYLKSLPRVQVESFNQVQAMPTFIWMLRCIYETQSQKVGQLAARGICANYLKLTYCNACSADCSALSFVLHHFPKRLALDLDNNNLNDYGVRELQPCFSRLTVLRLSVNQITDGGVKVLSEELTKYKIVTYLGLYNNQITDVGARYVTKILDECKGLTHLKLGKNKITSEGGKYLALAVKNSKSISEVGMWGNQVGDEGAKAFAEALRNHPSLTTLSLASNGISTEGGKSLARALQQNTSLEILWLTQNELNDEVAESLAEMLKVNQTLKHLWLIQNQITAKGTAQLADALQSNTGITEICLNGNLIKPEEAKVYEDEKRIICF

HEK293 = test: cells; details: Homo sapiens;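 also: cells exposed to compound for 14 hours overnight before viability readout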
[16] = Luminescence Cell-Based Dose Retest to Confirm Inhibitors of Cancer Stem Cells. [Related pubchem assays (depositor defined):AID2717, AID2721]; assay type: functional; details: Homo sapiens
Cytochrome P450 3A4 = Cytochrome P450 3A4 (Homo sapiens, UniProt P08684);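 also: CYP3A4 tested as one member of a cytochrome P450 panel screen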
Cytochrome P450 3A4, sequence (P08684 whole entry): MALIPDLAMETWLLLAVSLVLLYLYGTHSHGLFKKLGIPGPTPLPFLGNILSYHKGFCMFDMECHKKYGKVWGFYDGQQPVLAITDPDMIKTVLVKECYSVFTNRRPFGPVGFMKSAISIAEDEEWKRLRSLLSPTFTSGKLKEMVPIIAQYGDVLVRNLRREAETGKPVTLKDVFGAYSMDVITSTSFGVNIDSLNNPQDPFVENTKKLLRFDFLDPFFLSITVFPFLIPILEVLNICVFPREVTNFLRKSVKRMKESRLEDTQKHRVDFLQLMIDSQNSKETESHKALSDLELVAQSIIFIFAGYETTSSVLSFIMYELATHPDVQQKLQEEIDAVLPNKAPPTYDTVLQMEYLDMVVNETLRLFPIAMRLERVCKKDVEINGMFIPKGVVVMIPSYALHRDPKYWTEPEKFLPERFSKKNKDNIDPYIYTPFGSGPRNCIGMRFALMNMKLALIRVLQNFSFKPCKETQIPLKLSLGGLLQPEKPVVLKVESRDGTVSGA

DNA dC->dU-editing enzyme APOBEC-3G, sequence (Q9HC16 whole entry, the tested form may be a part): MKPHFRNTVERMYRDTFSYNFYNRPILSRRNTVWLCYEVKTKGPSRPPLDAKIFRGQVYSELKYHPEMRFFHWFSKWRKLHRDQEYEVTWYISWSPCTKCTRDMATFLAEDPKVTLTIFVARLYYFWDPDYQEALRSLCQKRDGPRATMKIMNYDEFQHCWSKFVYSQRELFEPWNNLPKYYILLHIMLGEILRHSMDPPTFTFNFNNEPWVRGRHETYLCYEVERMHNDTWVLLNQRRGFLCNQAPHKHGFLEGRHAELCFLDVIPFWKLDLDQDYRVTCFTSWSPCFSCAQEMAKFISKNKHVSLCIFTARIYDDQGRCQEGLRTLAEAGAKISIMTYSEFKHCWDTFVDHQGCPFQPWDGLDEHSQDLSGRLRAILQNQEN
DNA dC->dU-editing enzyme APOBEC-3A, sequence (P31941 whole entry): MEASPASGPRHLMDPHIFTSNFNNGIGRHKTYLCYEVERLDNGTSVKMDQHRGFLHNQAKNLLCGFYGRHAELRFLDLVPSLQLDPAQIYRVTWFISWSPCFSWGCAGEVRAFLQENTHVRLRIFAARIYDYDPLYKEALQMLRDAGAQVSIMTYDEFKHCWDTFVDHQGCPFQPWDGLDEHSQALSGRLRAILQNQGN
Cytochrome P450 2C9, sequence (P11712 whole entry): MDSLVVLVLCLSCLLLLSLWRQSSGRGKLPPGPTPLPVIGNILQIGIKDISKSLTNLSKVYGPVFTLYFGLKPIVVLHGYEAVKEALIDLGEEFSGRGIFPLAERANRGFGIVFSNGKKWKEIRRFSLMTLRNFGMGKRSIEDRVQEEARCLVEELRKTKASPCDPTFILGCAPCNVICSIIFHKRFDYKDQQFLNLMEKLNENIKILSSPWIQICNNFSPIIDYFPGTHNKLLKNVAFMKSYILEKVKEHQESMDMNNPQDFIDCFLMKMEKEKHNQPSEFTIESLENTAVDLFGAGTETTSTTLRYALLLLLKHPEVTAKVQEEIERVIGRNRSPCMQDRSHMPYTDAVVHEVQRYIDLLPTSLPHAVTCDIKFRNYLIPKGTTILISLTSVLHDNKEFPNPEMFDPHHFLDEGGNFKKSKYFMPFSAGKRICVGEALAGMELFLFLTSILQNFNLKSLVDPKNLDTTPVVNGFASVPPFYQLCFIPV
Tumor necrosis factor, sequence (P01375 whole entry, the tested form may be a part): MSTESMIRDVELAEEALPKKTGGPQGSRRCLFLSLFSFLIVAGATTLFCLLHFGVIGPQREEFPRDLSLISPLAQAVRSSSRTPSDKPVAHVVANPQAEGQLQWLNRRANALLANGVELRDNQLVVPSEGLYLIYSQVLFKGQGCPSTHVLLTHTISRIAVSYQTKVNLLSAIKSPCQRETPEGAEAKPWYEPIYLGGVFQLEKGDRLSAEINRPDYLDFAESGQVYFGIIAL
Cytochrome P450 2C19, sequence (P33261 whole entry): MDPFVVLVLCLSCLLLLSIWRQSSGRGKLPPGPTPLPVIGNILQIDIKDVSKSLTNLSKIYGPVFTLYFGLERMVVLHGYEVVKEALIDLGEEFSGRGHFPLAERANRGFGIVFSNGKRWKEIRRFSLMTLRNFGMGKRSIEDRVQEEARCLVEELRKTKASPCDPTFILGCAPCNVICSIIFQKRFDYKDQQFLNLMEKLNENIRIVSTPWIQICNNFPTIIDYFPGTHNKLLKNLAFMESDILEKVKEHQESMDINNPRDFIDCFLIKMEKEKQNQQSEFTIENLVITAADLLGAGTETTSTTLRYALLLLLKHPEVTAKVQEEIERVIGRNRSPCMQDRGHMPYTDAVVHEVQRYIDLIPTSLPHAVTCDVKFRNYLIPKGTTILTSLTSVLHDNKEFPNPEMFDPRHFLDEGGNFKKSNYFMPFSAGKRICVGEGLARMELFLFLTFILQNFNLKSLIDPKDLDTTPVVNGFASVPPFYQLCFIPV
Luciferin 4-monooxygenase, sequence (P08659 whole entry): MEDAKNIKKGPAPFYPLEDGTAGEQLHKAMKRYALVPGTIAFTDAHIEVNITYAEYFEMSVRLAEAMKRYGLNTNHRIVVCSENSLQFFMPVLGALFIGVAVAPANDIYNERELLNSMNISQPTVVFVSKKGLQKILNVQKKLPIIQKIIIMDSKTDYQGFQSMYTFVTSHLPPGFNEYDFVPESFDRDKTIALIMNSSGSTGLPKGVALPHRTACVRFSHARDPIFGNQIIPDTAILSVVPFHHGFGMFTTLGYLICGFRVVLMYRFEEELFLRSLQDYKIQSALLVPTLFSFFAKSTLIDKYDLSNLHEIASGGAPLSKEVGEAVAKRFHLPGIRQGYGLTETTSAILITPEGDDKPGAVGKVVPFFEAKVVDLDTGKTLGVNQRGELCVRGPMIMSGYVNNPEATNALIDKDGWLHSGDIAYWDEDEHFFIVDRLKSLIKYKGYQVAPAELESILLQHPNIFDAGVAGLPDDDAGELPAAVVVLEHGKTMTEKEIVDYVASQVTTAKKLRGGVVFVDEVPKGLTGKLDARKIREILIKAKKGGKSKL
Genome polyprotein, sequence (P29990 2492-3391 limits assumed): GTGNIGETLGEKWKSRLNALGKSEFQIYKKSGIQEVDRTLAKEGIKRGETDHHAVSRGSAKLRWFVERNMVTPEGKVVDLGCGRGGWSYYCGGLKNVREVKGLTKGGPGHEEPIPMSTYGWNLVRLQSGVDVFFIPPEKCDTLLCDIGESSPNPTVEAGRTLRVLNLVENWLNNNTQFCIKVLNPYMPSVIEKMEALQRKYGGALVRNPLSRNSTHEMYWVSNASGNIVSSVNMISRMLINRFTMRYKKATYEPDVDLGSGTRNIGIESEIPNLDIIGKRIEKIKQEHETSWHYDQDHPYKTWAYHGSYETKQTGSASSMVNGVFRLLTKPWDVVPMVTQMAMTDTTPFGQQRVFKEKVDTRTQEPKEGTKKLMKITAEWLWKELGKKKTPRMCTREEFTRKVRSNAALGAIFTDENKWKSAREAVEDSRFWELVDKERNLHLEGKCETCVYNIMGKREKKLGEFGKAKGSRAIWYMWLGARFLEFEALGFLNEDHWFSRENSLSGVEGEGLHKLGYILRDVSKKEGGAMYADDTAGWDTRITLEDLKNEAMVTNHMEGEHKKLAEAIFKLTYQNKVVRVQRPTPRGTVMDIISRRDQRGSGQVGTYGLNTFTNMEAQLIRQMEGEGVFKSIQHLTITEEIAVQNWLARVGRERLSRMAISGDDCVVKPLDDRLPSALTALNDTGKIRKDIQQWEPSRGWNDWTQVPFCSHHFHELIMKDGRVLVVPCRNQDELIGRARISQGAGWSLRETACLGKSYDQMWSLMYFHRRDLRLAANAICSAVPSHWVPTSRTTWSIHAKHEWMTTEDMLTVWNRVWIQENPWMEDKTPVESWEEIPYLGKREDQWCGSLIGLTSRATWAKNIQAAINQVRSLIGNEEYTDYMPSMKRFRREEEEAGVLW

COc1cc(/C=C/c2cc[n+](C)cc2)ccc1OCC(=O)Nc1ccccc1
IC50 [1]: 2.93 µM (active)
IC50 [2]: 2.02 µM (active)
IC50 [3]: 5.84 µM (active)

Cc1cc(C(=O)O)c(O)nc1C
AC50 (Cytochrome P450 2C19): inconclusive
AC50 (Cytochrome P450 2C9): inconclusive

N=C1/C(=C/c2ccco2)C(=O)N=C2SC(CC(=O)N3CCCC3)=NN12
IC50 [1]: 18.5 µM (active)
IC50 [2]: 37.6 µM (active)
IC50 [3]: 7.01 µM (active)

COc1cc2c(cc1OC)C(c1ccccc1)N(C(=O)CCl)CC2 (centres undefined)
EC50 [4]: > 120 µM (not active)
EC50 [5]: > 120 µM (not active)
EC50 (BJ [6]): 5.08 µM (inconclusive)
EC50 (H4): > 120 µM (not active)
EC50 (BJ [7]): 7.81 µM (inconclusive)
EC50 (BJ [8]): 4.74 µM (active)
EC50 [9]: 8.09 µM (active)
AC50 [10]: 5.36 µM (active)
IC50 (Protein skinhead-1): > 100 µM (inactive)

CCCC[N+]12CCC(CC1)C(C(O)(c1ccccc1)c1ccccc1)C2 (centres undefined)
EC50 [11]: > 195 µM (not active)
IC50 [1]: 2.74 µM (active)
IC50 [2]: 2.79 µM (active)

CC1(C)CC(=O)C=C(NC2=CC3OC(c4ccccc4)OCC3OC2=O)C1 (centres undefined)
EC50 [12]: > 112 µM (not active)
EC50 [13]: 14.8 µM (active)
EC50 [14]: 6.65 µM (inconclusive)
AC50 [10]: 7.71 µM (active)
IC50 (Genome polyprotein): > 100 µM (active)

COc1ccc(OC)c2nc(O)c(CCNC(=O)C3CCCCC3)cc12
AC50 (Cytochrome P450 1A2): 20 µM (inconclusive)
AC50 (Cytochrome P450 2C9): inconclusive

CSc1ccc(NC(=O)c2ccc(CN3CCc4ccccc43)cc2)cc1
IC50 (Tumor necrosis factor): > 20 µM (inactive)
IC50 [15]: > 20 µM (inactive)
IC50 (HEK293): > 20 µM (inactive)

N#Cc1cccc(NC(=O)CSc2nc3scc(-c4ccccc4)c3c(=O)[nH]2)c1
IC50 (Tumor necrosis factor): > 20 µM (inactive)
IC50 [15]: > 20 µM (inactive)
IC50 (HEK293): > 20 µM (inactive)

COc1cccc(/C=N/NC(=O)CSc2nnc(C)n2-c2ccccc2)c1O
AC50 [16]: 11.9 µM (active)
AC50 (Cytochrome P450 2C19; read-out: AC50): 31.6 µM (inconclusive)
AC50 (Cytochrome P450 1A2): 35.5 µM (inconclusive)
AC50 (Cytochrome P450 3A4): 4.47 µM (inconclusive)
AC50 (Cytochrome P450 2C9): inconclusive

NS(=O)(=O)c1cc(Cl)c(Cl)c(S(N)(=O)=O)c1 [DICHLORPHENAMIDE]
AC50 (Cytochrome P450 2C9): inconclusive
